Assay results reported in US20090156577A1, “7-AMINO ALKYLIDENYL-HETEROCYCLIC QUINOLONES AND NAPHTHYRIDONES” (priority 2004, published 2009).
In brackets after ≈: the same amount, converted by molar mass. Where two headings read alike, the source gives them in different places.

System: pathogenic bacteria
Assay: MIC by microdilution broth method (NCCLS M7-A4), in vitro antibacterial activity
Type: cell-based
Outline: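 MIC read after 35 °C incubation for 16–20 h relative to drug-free growth wells. Cation-adjusted Mueller-Hinton broth with two-fold compound dilutions, organisms at roughly 5×10^4 CFU/well final. Method follows NCCLS document M7-A4.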

[1] = Staphylococcus aureus, Organism A: Staphylococcus aureus OC4172, read-out: MIC
[2] = Streptococcus pneumoniae, ATCC49619, Organism E: Streptococcus pneumoniae ATCC 49619, read-out: MIC
[3] = Streptococcus pneumoniae, Organism B: fluoroquinolone-resistant clinical isolate of Streptococcus pneumoniae (QRDR amino acid substitutions)
[4] = Streptococcus pneumoniae, Organism C: fluoroquinolone-resistant clinical isolate of Streptococcus pneumoniae (QRDR amino acid substitutions)
[5] = Streptococcus pneumoniae, Organism D: fluoroquinolone-resistant clinical isolate of Streptococcus pneumoniae (QRDR amino acid substitutions)

| SMILES | MIC [1] | MIC [2] | MIC [3] | MIC [4] | MIC [5] |
| --- | --- | --- | --- | --- | --- |
| COc1c(N2CCC/C(=C/CN)C2)c(F)cc2c(=O)c(C(=O)O)cn([C@@H]3C[C@@H]3F)c12 [Compound 408, (Z)-7-[3-(2-Amino-ethylidene)-piperidin-1-yl]-6-fluoro-(1R,2S)-1-(2-fluoro-cyclopropyl)-8-methoxy-4-oxo-1,4-dihydro-quinoline-3-carboxylic acid] | 0.03 µg/mL (≈ 0.0715 µM) | 0.25 µg/mL (≈ 0.596 µM) | 1 µg/mL (≈ 2.38 µM) | 2 µg/mL (≈ 4.77 µM) | 2 µg/mL (≈ 4.77 µM) |
| COc1c(N2CCC/C(=C\CN)C2)c(F)cc2c(=O)c(C(=O)O)cn([C@@H]3C[C@@H]3F)c12 [Compound 409, (E)-7-[3-(2-Amino-ethylidene)-piperidin-1-yl]-6-fluoro-(1R,2S)-1-(2-fluoro-cyclopropyl)-8-methoxy-4-oxo-1,4-dihydro-quinoline-3-carboxylic acid] | 0.12 µg/mL (≈ 0.286 µM) | 1 µg/mL (≈ 2.38 µM) |  | > 16 µg/mL | > 16 µg/mL |
| COc1c(N2CCC/C(=C(\C)CN)C2)c(F)cc2c(=O)c(C(=O)O)cn([C@@H]3C[C@@H]3F)c12 [Compound 410, (Z)-7-[3-(2-Amino-1-methyl-ethylidene)-piperidin-1-yl]-6-fluoro-(1R,2S)-1-(2-fluoro-cyclopropyl)-8-methoxy-4-oxo-1,4-dihydro-quinoline-3-carboxylic acid] | ≤ 0.015 µg/mL | 0.06 µg/mL (≈ 0.138 µM) |  | 0.5 µg/mL (≈ 1.15 µM) | 1 µg/mL (≈ 2.31 µM) |
| NC/C(F)=C1\CCCN(c2c(F)cc3c(=O)c(C(=O)O)cn(-c4nc(N)c(F)cc4F)c3c2Cl)C1 [Compound 411, (Z)-1-(6-Amino-3,5-difluoro-pyridin-2-yl)-7-[3-(2-amino-1-fluoro-ethylidene)-piperidin-1-yl]-8-chloro-6-fluoro-4-oxo-1,4-dihydro-quinoline-3-carboxylic acid] | 0.06 µg/mL (≈ 0.117 µM) | 1 µg/mL (≈ 1.95 µM) | > 16 µg/mL | > 16 µg/mL | 16 µg/mL (≈ 31.3 µM) |
| NC/C(Cl)=C1/CCCN(c2c(F)cc3c(=O)c(C(=O)O)cn(-c4nc(N)c(F)cc4F)c3c2Cl)C1 [Compound 412, (E)-1-(6-Amino-3,5-difluoro-pyridin-2-yl)-7-[3-(2-amino-1-chloro-ethylidene)-piperidin-1-yl]8-chloro-6-fluoro-4-oxo-1,4-dihydro-quinoline-3-carboxylic acid] | 0.12 µg/mL (≈ 0.227 µM) | 1 µg/mL (≈ 1.89 µM) | 16 µg/mL (≈ 30.3 µM) | > 16 µg/mL | 8 µg/mL (≈ 15.1 µM) |
| NC/C=C1/CCCN(c2c(F)cc3c(=O)c(C(=O)O)cn(-c4nc(N)c(F)cc4F)c3c2Cl)C1 [Compound 413, (Z)-1-(6-Amino-3,5-difluoro-pyridin-2-yl)-7-[3-(2-amino-ethylidene)-piperidin-1-yl]8-chloro-6-fluoro-4-oxo-1,4-dihydro-quinoline-3-carboxylic acid] | 0.25 µg/mL (≈ 0.506 µM) | 2 µg/mL (≈ 4.05 µM) | 16 µg/mL (≈ 32.4 µM) | > 16 µg/mL | > 16 µg/mL |
| NC/C=C1\CCCN(c2c(F)cc3c(=O)c(C(=O)O)cn(-c4nc(N)c(F)cc4F)c3c2Cl)C1 [Compound 414, (E)-1-(6-Amino-3,5-difluoro-pyridin-2-yl)-7-[3-(2-amino-ethylidene)-piperidin-1-yl]8-chloro-6-fluoro-4-oxo-1,4-dihydro-quinoline-3-carboxylic acid] | 0.25 µg/mL (≈ 0.506 µM) | 2 µg/mL (≈ 4.05 µM) |  | > 16 µg/mL | > 16 µg/mL |
| Nc1nc(-n2cc(C(=O)O)c(=O)c3cc(F)c(N4CCC/C(=C(\F)CO)C4)c(Cl)c32)c(F)cc1F [Compound 415, (E)-1-(6-Amino-3,5-difluoro-pyridin-2-yl)-8-chloro-6-fluoro-7-[3-(1-fluoro-2-hydroxy-ethylidene)-piperidin-1-yl]-4-oxo-1,4-dihydro-quinoline-3-carboxylic acid] | 0.12 µg/mL (≈ 0.234 µM) | 4 µg/mL (≈ 7.8 µM) |  | > 16 µg/mL | > 16 µg/mL |
| Nc1nc(-n2cc(C(=O)O)c(=O)c3cc(F)c(N4CCC/C(=C(/Cl)CO)C4)c(Cl)c32)c(F)cc1F [Compound 416, (Z)-1-(6-Amino-3,5-difluoro-pyridin-2-yl)-8-chloro-7-[3-(1-chloro-2-hydroxy-ethylidene)-piperidin-1-yl]-6-fluoro-4-oxo-1,4-dihydro-quinoline-3-carboxylic acid] | 0.06 µg/mL (≈ 0.113 µM) | 1 µg/mL (≈ 1.89 µM) | 16 µg/mL (≈ 30.2 µM) | > 16 µg/mL | 16 µg/mL (≈ 30.2 µM) |
| Nc1nc(-n2cc(C(=O)O)c(=O)c3cc(F)c(N4CCC(=C(F)CO)CC4)c(Cl)c32)c(F)cc1F [Compound 417, 1-(6-Amino-3,5-difluoro-pyridin-2-yl)-8-chloro-6-fluoro-7-[4-(1-fluoro-2-hydroxy-ethylidene)-piperidin-1-yl]-4-oxo-1,4-dihydro-quinoline-3-carboxylic acid] | 0.03 µg/mL (≈ 0.0585 µM) | 0.5 µg/mL (≈ 0.975 µM) | 8 µg/mL (≈ 15.6 µM) | > 16 µg/mL | 4 µg/mL (≈ 7.8 µM) |
| CNCC(F)=C1CN(c2c(F)cc3c(=O)c(C(=O)O)cn(-c4nc(N)c(F)cc4F)c3c2Cl)C1 [Compound 418, 1-(6-Amino-3,5-difluoro-pyridin-2-yl)-8-chloro-6-fluoro-7-[3-(1-fluoro-2-methylamino-ethylidene)-azetidin-1-yl]-4-oxo-1,4-dihydro-quinoline-3-carboxylic acid] | 0.06 µg/mL (≈ 0.121 µM) | 1 µg/mL (≈ 2.01 µM) | 16 µg/mL (≈ 32.1 µM) | > 16 µg/mL | 16 µg/mL (≈ 32.1 µM) |
| Nc1nc(-n2cc(C(=O)O)c(=O)c3cc(F)c(N4CC(=C(F)CO)C4)c(Cl)c32)c(F)cc1F [Compound 419, 1-(6-Amino-3,5-difluoro-pyridin-2-yl)-8-chloro-6-fluoro-7-[3-(1-fluoro-2-hydroxy-ethylidene)-azetidin-1-yl]-4-oxo-1,4-dihydro-quinoline-3-carboxylic acid] | ≤ 0.015 µg/mL | ≤ 0.015 µg/mL | 0.03 µg/mL (≈ 0.0619 µM) | 0.25 µg/mL (≈ 0.516 µM) | 0.06 µg/mL (≈ 0.124 µM) |
| NCC=C1CN(c2c(F)cc3c(=O)c(C(=O)O)cn(-c4nc(N)c(F)cc4F)c3c2Cl)C1 [Compound 420, 1-(6-Amino-3,5-difluoro-pyridin-2-yl)-7-[3-(2-amino-ethylidene)-azetidin-1-yl]-8-chloro-6-fluoro-4-oxo-1,4-dihydro-quinoline-3-carboxylic acid] | ≤ 0.015 µg/mL | 0.12 µg/mL (≈ 0.258 µM) |  | 1 µg/mL (≈ 2.15 µM) | 0.5 µg/mL (≈ 1.07 µM) |
| CC(CN)=C1CN(c2c(F)cc3c(=O)c(C(=O)O)cn(-c4nc(N)c(F)cc4F)c3c2Cl)C1 [Compound 421, 1-(6-Amino-3,5-difluoro-pyridin-2-yl)-7-[3-(2-amino-1-methyl-ethylidene)-azetidin-1-yl]-8-chloro-6-fluoro-4-oxo-1,4-dihydro-quinoline-3-carboxylic acid] | 0.06 µg/mL (≈ 0.125 µM) | 0.25 µg/mL (≈ 0.521 µM) |  | 2 µg/mL (≈ 4.17 µM) | 1 µg/mL (≈ 2.08 µM) |
| C/C(CN)=C1\CCCN(c2c(F)cc3c(=O)c(C(=O)O)cn(-c4nc(N)c(F)cc4F)c3c2Cl)C1 [Compound 422, (Z)-1-(6-Amino-3,5-difluoro-pyridin-2-yl)-7-[3-(2-amino-1-methyl-ethylidene)-piperidin-1-yl]-8-chloro-6-fluoro-4-oxo-1,4-dihydro-quinoline-3-carboxylic acid] | 0.12 µg/mL (≈ 0.236 µM) | 1 µg/mL (≈ 1.97 µM) | > 16 µg/mL | > 16 µg/mL | > 16 µg/mL |
